Assay [1] deals with T1, human adrenergic beta2 receptor (Homo sapiens, UniProt P07550).
T1 construct: purchased Perkin Elmer; host or cells: Sf9 cells (overexpressed; membranes)
In words: Human adrenergic β2 receptor binding assay (3H-CGP12177, Sf9 cell membranes). The settings on record: 0.6 nM 3H-CGP12177, Sf9 membranes 5 μg/well, 60 min room temperature; read-out: Binding, IC50, nM β2. How it is done:
Typically said beta2-adrenergic binding assay comprises: • a) providing a membrane suspension comprising Sf9 cells in an assay buffer • b) incubating with 3H-CGP12177 in plates previously treated with assay buffer containing a coating agent • c) measuring binding of test compound in the presence of propanolol • d) maintaining incubation • e) terminating the binding reactions • f) determining the affinity of the test compound for the receptor by repeating steps a) to e) using multiple different test compound concentrations. • g) calculating an IC50 using the four parameters-log equation.
Test 1: Human Adrenergic β1 and β2 Receptor Binding Assays
The study of binding to human adrenergic beta1 and beta2 receptors was performed using commercial membranes prepared from Sf9 cells where they are overexpressed (Perkin Elmer). The membrane suspensions (16 μg/well for beta1 and 5 μg/well for beta2) in assay buffer (75 mM Tris/HCl with 12.5 mM MgCl2 and 2 mM EDTA pH=7.4) were incubated with 0.14 or 0.6 nM of 3H-CGP12177 (Amersham) for beta 1 and beta 2 receptors respectively in a final volume of 250 μl, in GFC Multiscreen 96 well plates (Millipore) previously treated with assay buffer containing 0.3% PEI (Sigma). Non specific binding was measured in the presence of 1 μM propanolol. Incubation was maintained for 60 minutes at room temperature and with gentle shaking. The binding reactions were terminated by filtration and washing with 2.5 volumes of Tris/HCl 50 mM pH=7.4. The affinity of each test compound to the receptor was determined by using ten different concentrations ran in duplicate. IC50s were calculated using Activity Base software from IDBS and the four parameters-log equation.

The target in assay [2] is T2, human muscarinic M3 receptor (Homo sapiens, UniProt P20309).
T2 construct: purchased Perkin Elmer; host or cells: CHO-K1 cells (membranes)
The experiment in a line: Human muscarinic M3 receptor binding assay ([3H]-NMS, CHO-K1 cell membranes). The settings on record: 1 nM [3H]-NMS, CHO-K1 membranes 4.9 μg/well, two hours incubation; read-out: Binding, IC50, nM M3. How it is done: Test 2: Human Muscarinic M1, M2, M3, M4 and M5 Receptors Binding Assays
The study of binding to human muscarinic M1, M2, M3, M4 and M5 receptors was performed using commercial membranes (Perkin Elmer) prepared from CHO-K1 cells. Radioligand binding experiments were conducted in 96 polypropylene well plates in a total volume of 200 μl. All reagents were dissolved in assay binding buffer (PBS with calcium and magnesium, SIGMA), except compounds that were dissolved in DMSO 100%. Non-specific binding (NSB) was measured in the presence of 1 μM atropine. [3H]-NMS was used as the radioligand at a concentration of 1 nM for M2, M3 and M5 and 0.3 nM for M1 and M4. [3H]-NMS and antagonists were incubated with membranes that express human muscarinic receptors M1, M2, M3, M4 and M5 at concentrations of 8.1, 10, 4.9, 4.5 and 4.9 μg/well, respectively.
After an incubation period of two hours with gentle shaking, 150 μl of the reaction mix were transferred to 96 GF/C filter plates (Millipore), previously treated with wash buffer (Tris 50 mM; NaCl 100 mM; pH:7.4), containing 0.05% PEI (Sigma) during one hour. Bound and free [3H]-NMS were separated by rapid vacuum filtration in a manifold from Millipore and washed four times with ice cold wash buffer. After drying 30 min, 30 μl of OPTIPHASE Supermix were added to each well and radioactivity quantified using a Microbeta microplate scintillation counter.
The affinity of each test compound to the receptors was determined by using ten different concentrations ran in duplicate. IC50s were calculated using Activity Base software from IDBS and the four parameters-log equation.

For four compounds, IC50 results are on record in US9518050B2, “Cyclohexyl and quinuclidinyl carbamate derivatives having β2 adrenergic agonist and M3 muscarinic antagonist activity” (priority 2012, dated 2016).

T2 sequence (P20309 whole entry): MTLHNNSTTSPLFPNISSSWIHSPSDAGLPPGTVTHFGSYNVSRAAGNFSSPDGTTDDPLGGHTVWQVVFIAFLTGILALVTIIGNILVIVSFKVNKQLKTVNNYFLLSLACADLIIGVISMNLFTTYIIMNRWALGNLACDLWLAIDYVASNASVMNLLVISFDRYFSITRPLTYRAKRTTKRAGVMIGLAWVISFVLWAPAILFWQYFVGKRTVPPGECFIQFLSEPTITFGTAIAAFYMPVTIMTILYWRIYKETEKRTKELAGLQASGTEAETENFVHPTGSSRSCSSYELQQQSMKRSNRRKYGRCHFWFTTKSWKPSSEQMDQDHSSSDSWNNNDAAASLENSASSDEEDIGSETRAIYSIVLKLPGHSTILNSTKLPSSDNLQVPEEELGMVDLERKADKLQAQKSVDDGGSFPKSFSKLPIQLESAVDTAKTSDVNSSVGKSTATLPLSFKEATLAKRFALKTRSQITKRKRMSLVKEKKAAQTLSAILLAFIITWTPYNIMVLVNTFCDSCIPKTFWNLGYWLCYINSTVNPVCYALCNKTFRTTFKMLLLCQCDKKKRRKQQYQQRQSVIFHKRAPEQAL

For `N[C@H]1CC[C@H](OC(=O)Nc2cc(CCCC(=O)N[C@H]3CC[C@H](CNC[C@H](O)c4ccc(O)c5[nH]c(=O)ccc45)CC3)ccc2-c2ccccc2)CC1` (relative stereo) [Example 58, trans-4-aminocyclohexyl[4-(4-{[trans-4-({[(2R)-2-hydroxy-2-(8-hydroxy-2-oxo-1,2-dihydroquinolin-5-yl)ethyl]amino}methyl)cyclohexyl]amino}-4-oxobutyl)biphenyl-2-yl]carbamate], the values for the IC50 in assay [1] and in assay [2] were 8.4 nM and 1.4 nM, respectively.
In the case of `COc1cc(C(=O)NCCCc2ccc(-c3ccccc3)c(NC(=O)O[C@H]3CC[C@H](N)CC3)c2)c(Cl)cc1CNC[C@H](O)c1ccc(O)c2[nH]c(=O)ccc12` (relative stereo) [Example 52, trans-4-aminocyclohexyl[4-(3-{[2-chloro-4-({[(2R)-2-hydroxy-2-(8-hydroxy-2-oxo-1,2-dihydroquinolin-5-yl)ethyl]amino}methyl)-5-methoxybenzoyl]amino}propyl)biphenyl-2-yl]carbamate], the IC50 in assay [1] turned out to be 8.2 nM; in assay [2], 1.5 nM.
For “trans-4-aminocyclohexyl(4-{4-[6-({[(2R)-2-hydroxy-2-(8-hydroxy-2-oxo-1,2-dihydroquinolin-5-yl)ethyl]amino}methyl)-5-methoxy-2-oxo-1,3-benzoxazol-3(2H)-yl]butyl}biphenyl-2-yl)carbamate dihydrofluoride [Example 39]” the same measures were 10 nM and 0.56 nM.
On to “trans-4-aminocyclohexyl(4-{2-[({[2-chloro-4-({[(2R)-2-hydroxy-2-(8-hydroxy-2-oxo-1,2-dihydroquinolin-5-yl)ethyl]amino}methyl)-5-methoxyphenyl]amino}carbonyl)oxy]ethyl}biphenyl-2-yl)carbamate dihydrochloride [Example 49]”, for which the results for the IC50 in assay [1] and in assay [2] were 7.2 nM and 0.59 nM, respectively.
